These compounds were tested on cucumber downy mildew (Pseudoperonospora cubensis (Berk.et Curt.) Rostov) (assay: Protective effect against cucumber downy mildew on potted plants). Conditions: 400 ppm, protectant activity, parallel test.
Assay type: in vivo
Protocol: (§1) Fungicidal activity of the compounds in the present invention against many kinds diseases were carried out. The procedure of fungicidal activity determination is as follows:
(§2) The fungicidal activity was tested in vivo manner on the potted plants. The test compounds of the present invention were dissolved in proper solvent (choosing the solvent according their dissolving ability to the compounds, the solvents could be acetone, methanol or N,N-dimethylformide, etc. The volume ratio between solvent and liquid sprayed was equal to or less than 0.05) and dilute with water contain 0.1% Tween 80 to given concentrations. Compounds of present invention was sprayed onto the leaves of seedling according to the designed concentration. Meanwhile, water was set as the blank control, three replicates were set for each treatment, the spore suspension were inoculated on the second day after treatment, then the plants were placed in an artificial climate chamber (temperature: day 25° C., night 20° C., relative humidity 95 to 100%). 24 hours later, the plants were moved to green house to cultivated. The plants which not need to control humidity was inoculated spore suspension in green house and cultivated in green house directly. The results were investigated after the plants were fully infected relative to the blank control (usually one week). The test results grading 100-0 refers to the <A Manual of Assessment Keys for Plant Diseases> which edited by American Phytopathological Society. “100” refer to no infection and “0” refer to the most serious infection
Protective effect against cucumber downy mildew (Pseudoperonospora cubensis (Berk.et Curt.) Rostov)
According the test method described above, parallel test were carried out between compounds 2 and 11 of present invention and the known compounds KC1, KC2, KC3 and KC4 (they are the compounds 7g, 7f and 7a in Chinese Journal of Pesticide Science, 2011, 13(6): 576-580 and compound of 11 in CN1646494A, respectively).

SMILES | Control effect against cucumber downy mildew (%)
CCC(CC)Oc1cccc(NC(=O)c2cn(C)nc2C(F)F)c1C [Compound 11] | 90%
Cn1cc(C(=O)Nc2ccccc2)c(C(F)F)n1 [KC1] | 0%
Cc1ccccc1NC(=O)c1cn(C)nc1C(F)F [KC2] | 0%
Cc1c(F)cccc1NC(=O)c1cn(C)nc1C(F)F [KC3] | 0%
Cn1cc(C(=O)Nc2ccc(F)cc2-c2ccc(Cl)c(Cl)c2)c(C(F)F)n1 [KC4, bixafen] | 0%

The compounds below were run on corn rust (Puccinia sorghi Schw) (assay: Protective effect against corn rust on potted plants). Conditions: 6.25 ppm, protectant activity, parallel test.
Assay type: in vivo
Protocol: as §1, §2
Protective effect against corn rust (Puccinia sorghi Schw):
According the test method described above, parallel test were carried out between compounds 1, 3, 7, 9, 11 and 21 of present invention and the known compounds KC1, KC2, KC3 and KC4.

SMILES | pest or weed control at 6.25 ppm
CC(C)Oc1cccc(NC(=O)c2cn(C)nc2C(F)F)c1 [Compound 1] | 100%
CCCC(C)Oc1cccc(NC(=O)c2cn(C)nc2C(F)F)c1 (stereo not drawn) [Compound 3] | 95%
CCC(CC)Oc1cccc(NC(=O)c2cn(C)nc2C(F)F)c1C [Compound 11] | 90%
C=C(C)Cc1c(NC(=O)c2cn(C)nc2C(F)F)cccc1OC(C)C [Compound 21] | 90%
Cn1cc(C(=O)Nc2ccccc2)c(C(F)F)n1 [KC1] | 0%
Cc1ccccc1NC(=O)c1cn(C)nc1C(F)F [KC2] | 0%
Cc1c(F)cccc1NC(=O)c1cn(C)nc1C(F)F [KC3] | 20%
Cn1cc(C(=O)Nc2ccc(F)cc2-c2ccc(Cl)c(Cl)c2)c(C(F)F)n1 [KC4, bixafen] | 0%

Same assay, conditions: 25 ppm, protectant activity, parallel test

SMILES | pest or weed control at 25 ppm
CC(C)Oc1cccc(NC(=O)c2cn(C)nc2C(F)F)c1 [Compound 1] | 100%
CCCC(C)Oc1cccc(NC(=O)c2cn(C)nc2C(F)F)c1 (stereo not drawn) [Compound 3] | 100%
CCC(CC)Oc1cccc(NC(=O)c2cn(C)nc2C(F)F)c1C [Compound 11] | 100%
C=C(C)Cc1c(NC(=O)c2cn(C)nc2C(F)F)cccc1OC(C)C [Compound 21] | 100%
Cn1cc(C(=O)Nc2ccccc2)c(C(F)F)n1 [KC1] | 60%
Cc1ccccc1NC(=O)c1cn(C)nc1C(F)F [KC2] | 0%
Cc1c(F)cccc1NC(=O)c1cn(C)nc1C(F)F [KC3] | 30%
Cn1cc(C(=O)Nc2ccc(F)cc2-c2ccc(Cl)c(Cl)c2)c(C(F)F)n1 [KC4, bixafen] | 50%
